The values that follow come from US9617214B2, “Compounds for cognitive enhancement and methods of use thereof” (The Translational Genomics Research Institute, priority 2013, dated 2017).

Assay [1] concerns the target T1, ROCK1 (Homo sapiens, UniProt Q13464). In words: ROCK1 enzyme activity at 10 μM. In kind it is biochemical. As to conditions: 10 μM compound. On the procedure:
(§1) Enzyme activity of ROCK1 and ROCK2 were studied at 10 μM to compare the inhibition activity of ROCK inhibitors. Table 2 summarizes the extent of inhibition of the compounds of the inventions.

In assay [2] the test system is H4-tau cells. In words: p-tau protein to total tau protein ratio in H4-tau cells at IC10 dosage, 96-hour time course, ELISA. It is filed as cell-based, human. As to conditions: 96-hour time course, compared to vehicle (DMSO), two-sided t-test. The procedure:
Thirteen different ROCK inhibitors were tested for their effect on the ratio of p-tau protein to total tau protein. […] Alamar Blue was used after cells were treated with the respective compounds at various dosages to determine the IC10 value. The compounds were applied to H4-tau cells over a 96-hour time course with 8 time points (at hours 12, 24, 36, 48, 60, 72, 84, and 96). At each time point, total cell protein was collected and p-tau protein and total tau protein was assessed using an enzyme-linked immunosorbent assay. The p-tau to total tau protein ratio at each time point for each drug was compared to the corresponding time point for cells treated with vehicle (DMSO) used to solubilize the respective compound.
Two-sided t-tests were used to determine significant changes in the p-tau protein to total tau protein ratio for each drug across the entire time course at each tested time point. Cells treated by drug were compared to cells treated to vehicle.
For orientation: ELISA stands for enzyme-linked immunosorbent assay.

Assay [3] concerns the target T2, ROCK2 (Homo sapiens, UniProt O75116). In words: ROCK2 enzyme activity at 10 μM. It is filed as biochemical. As to conditions: 10 μM compound. The procedure: as §1
Assay [4] concerns the target T1, ROCK1. The assay is described as follows: IC50 value for ROCK1 activity. It is filed as biochemical. As to conditions: ATP at Km (10 μM).
The test system of assay [5] is H4-tau cells. In words: Validation time course in H4-tau cells at IC50 (cell survival) dosage: p-tau and total tau protein by ELISA. As to conditions: IC50 dosage for cell survival, over 96 hours; for concentration of total tau protein: FIG. 2; for concentration of p-tau protein: FIG. 3. It is filed as cell-based, human. On the procedure: The time course was repeated using 4 biological replicates over 96 hours and 10 time points (at hours 0, 6, 12, 24, 36, 48, 60, 72, 84, and 96). Total cell protein was collected at each time point and ELISAs were used to measure p-tau protein and total tau protein.

The target in assay [6] is T2, ROCK2. In words: IC50 value for ROCK2 activity. In kind it is biochemical. As to conditions: ATP at Km (10 μM).
For assay [7], the system named is rats. As to conditions: cited from earlier work.
For assay [8], the system named is Aβ42. As to conditions: mouse model of AD; cited from earlier work.
The subject of assay [9] is rats. As to conditions: aged rats; cited from earlier work.
[10] abbreviates: Test 1, read-out: % enzyme activity at 10 μM ROCK1 Test 1.
Where [11] appears, read: Test 2, read-out: % enzyme activity at 10 μM ROCK1 Test 2.
Where [12] appears, read: Test 1, read-out: % enzyme activity at 10 μM ROCK2 Test 1.
Where [13] appears, read: Test 2, read-out: % enzyme activity at 10 μM ROCK2 Test 2.

“Also recorded” adds a separate entry of the source. Read-outs that look alike come from different tables or passages of the source.

T1 sequence (Q13464 whole entry): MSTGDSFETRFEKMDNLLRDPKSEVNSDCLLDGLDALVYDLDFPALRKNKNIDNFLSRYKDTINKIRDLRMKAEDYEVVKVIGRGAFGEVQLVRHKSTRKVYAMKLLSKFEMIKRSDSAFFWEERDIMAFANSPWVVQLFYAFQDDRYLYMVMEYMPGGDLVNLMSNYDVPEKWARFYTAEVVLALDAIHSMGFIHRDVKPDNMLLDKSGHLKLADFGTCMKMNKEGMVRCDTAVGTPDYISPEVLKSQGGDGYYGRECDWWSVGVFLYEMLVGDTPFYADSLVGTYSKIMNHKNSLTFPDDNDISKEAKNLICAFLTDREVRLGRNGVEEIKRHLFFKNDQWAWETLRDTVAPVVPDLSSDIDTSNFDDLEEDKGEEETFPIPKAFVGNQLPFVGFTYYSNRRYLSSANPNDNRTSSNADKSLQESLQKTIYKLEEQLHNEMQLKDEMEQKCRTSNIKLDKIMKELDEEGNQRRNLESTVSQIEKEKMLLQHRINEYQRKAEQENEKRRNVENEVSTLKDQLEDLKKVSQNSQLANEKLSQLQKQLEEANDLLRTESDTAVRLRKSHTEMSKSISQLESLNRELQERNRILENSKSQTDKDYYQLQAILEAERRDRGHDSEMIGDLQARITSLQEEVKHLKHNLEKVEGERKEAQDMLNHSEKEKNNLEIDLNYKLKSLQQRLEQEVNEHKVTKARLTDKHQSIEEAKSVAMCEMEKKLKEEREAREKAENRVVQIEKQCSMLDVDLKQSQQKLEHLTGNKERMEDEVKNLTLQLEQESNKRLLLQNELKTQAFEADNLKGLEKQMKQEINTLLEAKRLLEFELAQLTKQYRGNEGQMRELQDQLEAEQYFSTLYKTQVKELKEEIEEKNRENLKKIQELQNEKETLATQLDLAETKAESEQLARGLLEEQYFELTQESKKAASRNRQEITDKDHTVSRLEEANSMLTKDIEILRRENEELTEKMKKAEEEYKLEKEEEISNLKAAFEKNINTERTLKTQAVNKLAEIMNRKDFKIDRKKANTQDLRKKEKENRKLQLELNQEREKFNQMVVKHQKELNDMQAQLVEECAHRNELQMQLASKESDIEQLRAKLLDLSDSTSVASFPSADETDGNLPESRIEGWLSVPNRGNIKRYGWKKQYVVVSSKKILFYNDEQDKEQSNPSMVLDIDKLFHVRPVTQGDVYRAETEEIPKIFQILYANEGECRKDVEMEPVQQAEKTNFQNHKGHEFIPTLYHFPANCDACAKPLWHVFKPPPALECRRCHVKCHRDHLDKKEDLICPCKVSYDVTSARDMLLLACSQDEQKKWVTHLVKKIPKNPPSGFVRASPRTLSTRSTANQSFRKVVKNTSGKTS
T2 sequence (O75116 whole entry): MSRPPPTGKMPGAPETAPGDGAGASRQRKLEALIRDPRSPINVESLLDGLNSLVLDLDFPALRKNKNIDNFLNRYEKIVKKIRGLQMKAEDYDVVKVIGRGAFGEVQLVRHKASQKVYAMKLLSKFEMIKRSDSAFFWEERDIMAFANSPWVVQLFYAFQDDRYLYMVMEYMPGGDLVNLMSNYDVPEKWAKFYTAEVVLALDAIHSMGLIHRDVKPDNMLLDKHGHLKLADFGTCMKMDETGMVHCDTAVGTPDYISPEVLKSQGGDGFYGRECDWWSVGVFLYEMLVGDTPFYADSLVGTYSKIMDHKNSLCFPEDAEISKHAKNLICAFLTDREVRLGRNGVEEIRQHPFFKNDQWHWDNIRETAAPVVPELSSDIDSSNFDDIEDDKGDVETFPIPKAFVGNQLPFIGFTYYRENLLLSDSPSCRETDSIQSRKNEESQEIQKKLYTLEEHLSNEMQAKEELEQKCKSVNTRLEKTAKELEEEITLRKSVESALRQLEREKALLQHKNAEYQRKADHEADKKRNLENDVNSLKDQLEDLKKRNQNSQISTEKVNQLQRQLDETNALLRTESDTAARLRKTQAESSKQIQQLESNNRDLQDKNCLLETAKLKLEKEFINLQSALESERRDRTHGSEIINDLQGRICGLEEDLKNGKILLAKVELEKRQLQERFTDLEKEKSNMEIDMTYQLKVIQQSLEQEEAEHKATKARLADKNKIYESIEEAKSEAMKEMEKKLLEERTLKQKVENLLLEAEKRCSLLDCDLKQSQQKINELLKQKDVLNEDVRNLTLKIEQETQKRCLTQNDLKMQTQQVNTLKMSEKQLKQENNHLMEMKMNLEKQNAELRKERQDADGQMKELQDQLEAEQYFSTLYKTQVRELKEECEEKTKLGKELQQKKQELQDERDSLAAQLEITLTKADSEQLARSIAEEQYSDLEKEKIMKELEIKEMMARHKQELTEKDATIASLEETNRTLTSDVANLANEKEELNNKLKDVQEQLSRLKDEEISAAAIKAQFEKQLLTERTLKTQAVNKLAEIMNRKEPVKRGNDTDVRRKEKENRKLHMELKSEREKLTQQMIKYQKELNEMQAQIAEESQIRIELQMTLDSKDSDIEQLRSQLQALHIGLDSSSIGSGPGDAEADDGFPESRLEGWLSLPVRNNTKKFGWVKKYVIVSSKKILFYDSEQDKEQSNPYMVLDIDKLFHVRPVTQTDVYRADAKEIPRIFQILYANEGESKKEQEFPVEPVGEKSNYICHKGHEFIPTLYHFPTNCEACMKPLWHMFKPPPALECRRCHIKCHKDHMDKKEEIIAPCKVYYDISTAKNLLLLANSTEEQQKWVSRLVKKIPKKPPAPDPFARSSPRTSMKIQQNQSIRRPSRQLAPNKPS

For the compound `O=C(Nc1ccc(-c2cn[nH]c2)cc1)C1COc2ccccc2C1` (stereo not shown) [Compound T299], the values for the remaining activity at 10 µM in [1] (setting [10]) and in [1] (setting [11]) were 0.97% and 2.38%, respectively.

For `O=C(Nc1cccc(-c2ccncc2)c1)C1COc2ccccc2C1` (stereo not shown) [Compound T303], the remaining activity at 10 µM in assay [1] (setting [10]) was 3.26%; in assay [1] (setting [11]), 2.65%; in assay [3] (setting [12]), 0.78%; in assay [3] (setting [13]), 0.55%. The “p-tau protein to total tau protein ratio” value in assay [2] is on record as “significant decrease”.

With `O=S(=O)(c1cccc2cnccc12)N1CCCN(Cc2ccc(F)cc2)CC1` [Compound T306], the remaining activity at 10 µM worked out at 6.75% in [1] (setting [10]), 6.94% in assay [1] (setting [11]), 3.85% in [3] (setting [12]) and 3.62% in [3] (setting [13]).

As to `O=C(NCCc1cccc(Cl)c1)c1ccc(-c2ccncc2)cc1` [Compound T343], the IC50 (usually the concentration that gives 50% inhibition) in assay [4] (Test 1, read-out: IC50 (μM) ROCK1 Test 1) amounted to 0.0318 µM; in assay [4] (Test 2, read-out: IC50 (μM) ROCK1 Test 2) it was 0.0227 µM; in assay [6] (Test 1, read-out: IC50 (μM) ROCK2 Test 1), 0.0167 µM; in [6] (Test 2, read-out: IC50 (μM) ROCK2 Test 2), 0.0102 µM. Also, the remaining activity at 10 µM in [1] (setting [10]) was 1.22%; in assay [1] (setting [11]), 1.17%; in assay [3] (setting [12]) it was 0.08%; in [3] (setting [13]), 0.56%. In addition, the “p-tau protein to total tau protein ratio” value is recorded as “significant decrease; also recorded: decreased ratio” in assay [5] (4 biological replicates, FIG. 4) and “significant decrease” in [2]. The “concentration of total tau protein” value in assay [5] is given as “lesser concentrations”. The “concentration of p-tau protein” value in assay [5] is on record as “lesser concentrations”.

On to `CC(Cc1ccc(F)cc1)NC(=O)c1ccc(-c2ccncc2)cc1` (stereo not shown) [Compound T350], for which, in assay [2], the “p-tau protein to total tau protein ratio” value is listed as “significant decrease”.

For `CC(N)C1CCC(C(=O)Nc2ccncc2)CC1` (stereo not shown) [Compound Y27632, 4-(1-aminoethyl)-N-pyridin-4-yl-cyclohexane-1-carboxamide], the memory and learning entry is listed as “increased” in [7] (rats with ischemia) and “decreased” in [7] (sham rats, no hyperphosphorylation of the tau protein). For the same compound, in assay [7] (rats, hyperphosphorylation due to ischemia), the “hyperphosphorylation of the tau protein” value is recorded as “decreased”. Further, in [8], the “brain levels of Aβ42” value was “preferentially lowered”.

With `O=S(=O)(c1cccc2cnccc12)N1CCCNCC1` [Fasudil, 5-(1,4-diazepan-1-ylsulfonyl)isoquinoline, reference compound], in assay [5], the “concentration of total tau protein” value is “lesser concentrations” and the “concentration of p-tau protein” value was “lesser concentrations”. For the same compound, the learning and memory entry in assay [9] is “increased”.
